In brackets after ≈: the same amount, converted by molar mass.

This note sets out measurements from ChEMBL document CHEMBL2169801, “Development of o-chlorophenyl substituted pyrimidines as exceptionally potent aurora kinase inhibitors” (J Med Chem, 2012).

Assay in one series: not given
To be noted: buffer.
As to `O=C(O)c1ccc(Nc2nccc(Nc3ccccc3F)n2)cc1`, the solubility entry is reported as “Insoluble”.

As for `O=C(O)c1ccc(Nc2nccc(Nc3ccccc3Cl)n2)cc1O`, the solubility entry was “Insoluble”. Consider `O=C(O)c1ccc(Nc2nccc(Nc3ccccc3Cl)n2)cc1`, for which the solubility entry is recorded as “Insoluble”. Consider `O=C(O)c1ccc(Nc2ncc(F)c(Nc3ccccc3C(=O)O)n2)cc1`, for which the solubility entry is “Insoluble”.

A short description of a further series: physchem. Conditions: buffer, pH 7.4.
On to `Fc1cnc(Nc2ccc(-c3nnn[nH]3)cc2)nc1Nc1ccccc1Cl`, for which the concentration in solution (solubility) came to 49 µg/mL (≈ 128 µM). `Clc1ccccc1Nc1ccnc(Nc2ccc(-c3nnn[nH]3)cc2)n1` returned a solubility of 49 µg/mL (≈ 134 µM).

With `Oc1cc(Nc2ncc(F)c(Nc3ccccc3Cl)n2)ccc1-c1nnn[nH]1`, the solubility is 49 µg/mL (≈ 123 µM). Take `Clc1ccccc1Nc1nc(Nc2ccc(-c3nnn[nH]3)cc2)ncc1Cl`: the solubility worked out at 49 µg/mL (≈ 123 µM).

The solubility is the concentration that dissolves in the medium under given conditions.
